Experimental data published in patent US20040044069A1, “Anti-virus compounds” (priority 2002, published 2004).
Read-outs that look alike come from different tables or passages of the source.

Tests used:
herpesvirus 5 = herpesvirus 5 plaque reduction assay in MRC-5 cell monolayers; assay type: cell-based, human herpesvirus 5 (HCMV)
Method: Compound 1 was isolated from a unique Taiwanese plant (Taiwania cryptomerioides). See, e.g., Chang et al. (2000) Phytochemistry 55: 227. Antiviral drug ganciclovir (i.e., […], GCV) was purchased from Sigma. Both compounds were solubilized in 100% dimethyl sulfoxide (DMSO) at a concentration of 10 mM and stored at −20° C. The compounds were added to cultures such that the resulting concentrations of DMSO never exceed 0.05%, by volume. To reserve the stability of both compounds, Compound 1 and GCV were never stored in cell culture medium and made fresh for each experiment.
Human cell lines, HEL299 (ATCC CCL-137), MRC-5 (ATCC CCL-171), H1299 (CRL-5803), and ARPE19 (CRL-2302) were grown in respective culture media as indicated by the ATCC. All cell lines were screened periodically for mycoplasma contamination. Two HCMV lab strains, AD169 (VR-538) and the Town strain RC256 (the ATCC VR-2356) were purchased from ATCC. All stocks of HCMV were prepared as described in Spaete & Mocarski (1985) J Virol 54(3): 817-24.
The activities of Compound 1 and GCV against herpesvirus 5 were determined by a plaque reduction assay. All herpesvirus 5 plaque reduction assays were performed with monolayer cultures of MRC-5 cells in 6-well cluster dishes (Costar, Cambridge, Mass.). Briefly, one day before the experiment, MRC-5 cells were seeded into 6-well plates at a final concentration of 5×10^6 cells/well. On the day of virus inoculation, cells were treated with each test compound at a desired concentration for one hour before virus inoculation. The serially-diluted virus inoculums containing 10^5 to 10^0 PFU of herpesvirus […] were then added into cell cultures and incubated for additional 2 hours at 37° C. After the incubation, the cells were extensively washed with phosphate buffered saline (PBS) three times and then overlayed with the overlay medium containing 0.3% agar in the absence or presence of the test compounds. The cell cultures were maintained in the 37° C. incubator for two weeks. After removing the overlay agar, the cells were stained with crystal violet.

[1] = cytotoxic effect by MTS assay; assay type: cell-based; conditions: human, read-out: LC50 value (i.e., half lethal concentration)
Method: The cytotoxic effect was also determined using the MTS (3-(4,5-dimethylthiazol-2-yl)-5-(3-carboxymethoxyphenyl)-2-(4-sulfophenyl)-2H-tetrazolium, inner salt) assay method described in Goodwin et al. (1995, J. Immunol. Methods. 179: 95).

[2] = test system: herpesvirus 5 immediate early protein 2 (IE2 protein); experiment: expression of herpesvirus 5 IE2 and late proteins in infected HEL299 cells; assay type: cell-based; conditions: AD169, MOI 1.0, lysates day 0-7 post-infection
Method: Cell-free virus stock, whose titer had been determined by a plaque reduction assay, was used. One day before the experiment, herpesvirus 5-permissive cells were seeded into 6-well plates at a final concentration of 5×10^6 cells/well. On the day of viral infection, the cells were incubated with or without a test compound (Compound 1 or GCV) for one hour. Subsequently, the cells were washed with PBS twice and serum-free medium were added during virus inoculation. The virus inocula were approximately at a multiplicity of infection (MOI) of 0.1 to 1 PFU/cell depending on which cell line was used. After two hours of incubation with viruses, cells were washed with PBS to remove unbound viruses. The cells were maintained at fresh media with or without test compounds at 37° C. with 5% CO2 incubator. The cell lysate samples were collected on day 0, 1, 3, 5, and 7 after virus infection.
More specifically, HEL299 cells were infected with herpesvirus 5 lab strain AD169 at an MOI of 1.0. Cell lysates were then collected after 2 hours of virus absorption on day 0, 1, 3, 5, and 7 post-infection. IE2 protein in virally infected cells was expressed rapidly on day 1 and increased dramatically on day 5. The expression of herpesvirus 5 late proteins was also detected on days 5 and 7 post-infection.

[3] = test system: herpesvirus 5 ie and pp150 transcripts; experiment: reverse transcription (RT) assay of ie and pp150 transcripts in infected HEL299 cells; assay type: cell-based, herpesvirus 5 lab strain AD169; conditions: AD169, MOI 1.0, total RNA day 0-7 post-infection
Method: To determine whether the absence of IE2 protein expression was due to Compound 1-induced abrogation at the transcriptional level, a reverse transcription (RT) assay was performed to measure the IE2 mRNA in the absence or presence of Compound 1. Basically, HEL299 cells were infected with herpesvirus 5 lab strain AD169 at a MOI of 1.0. Total RNAs were then extracted, collected after 2 hours of virus absorption on day 0, 1, 3, 5, and 7 post-infection. The expression of immediate early (ie) and late (pp150) gene products were determined by amplifying segments spanning at a common region shared by ie genes 1 and 2, and the 5′ end of pp150. As an internal control, a segment spanning β-actin was also amplified. […] The expression of pp150 transcripts was also detected after day 3.

Compound	IC50 (herpesvirus 5; Human betaherpesvirus 5, MRC5, read-out: IC50 value (i.e., 50% infectious concentration)) [nM]	potency relative to GCV (herpesvirus 5; IC50 compared with that of GCV)	SI (selectivity index=LC50/IC50) (herpesvirus 5; LC50 (MTS)/IC50 (plaque reduction))	herpesvirus 5 growth in the presence of compound (herpesvirus 5; plaque reduction, MRC-5 cells)	CC50 [1] [nM]	detection of IE2 and late viral proteins in infected cells [2]	detection of viral RNA (ie and pp150 transcripts) [3]	IC50 (herpesvirus 5; Human betaherpesvirus 5, MRC5, plaque reduction, MRC-5 cells, herpesvirus 5, read-out: IC50 value (i.e., 50% infectious concentration)) [nM]
O=C1OCc2c1cc1ccc3c(c1c2-c1ccc2c(c1)OCO2)OCO3 [Compound 1, 10-benzo[1,3]dioxol-5-yl-9H-furo[3′,4′:6,7]naphtho[1,2-d][1,3]dioxol-7-one]	< 100	ten-fold more potent	> 160	inhibited	> 16000	none of these viral proteins was detected	none of these viral RNA was detected	–
Nc1nc2c(ncn2COC(CO)CO)c(=O)[nH]1 [GCV, 2-amino-1,9-dihydro-9-[(2-hydroxy-1-(hydroxymethyl)ethoxy)methyl]-6H-purin-6-one, reference compound]	–	–	–	–	–	–	–	1000
